From article PMC4634863, “A Putative Non-Canonical Ras-Like GTPase from P. falciparum: Chemical Properties and Characterization of the Protein” (PLoS ONE, 2015) come the findings set out here.

The experiment concerns the target T1, PfG (Plasmodium falciparum, UniProt O77338).
T1 construct: gene PF3D7_0313500
T1 sequence (O77338 1-911): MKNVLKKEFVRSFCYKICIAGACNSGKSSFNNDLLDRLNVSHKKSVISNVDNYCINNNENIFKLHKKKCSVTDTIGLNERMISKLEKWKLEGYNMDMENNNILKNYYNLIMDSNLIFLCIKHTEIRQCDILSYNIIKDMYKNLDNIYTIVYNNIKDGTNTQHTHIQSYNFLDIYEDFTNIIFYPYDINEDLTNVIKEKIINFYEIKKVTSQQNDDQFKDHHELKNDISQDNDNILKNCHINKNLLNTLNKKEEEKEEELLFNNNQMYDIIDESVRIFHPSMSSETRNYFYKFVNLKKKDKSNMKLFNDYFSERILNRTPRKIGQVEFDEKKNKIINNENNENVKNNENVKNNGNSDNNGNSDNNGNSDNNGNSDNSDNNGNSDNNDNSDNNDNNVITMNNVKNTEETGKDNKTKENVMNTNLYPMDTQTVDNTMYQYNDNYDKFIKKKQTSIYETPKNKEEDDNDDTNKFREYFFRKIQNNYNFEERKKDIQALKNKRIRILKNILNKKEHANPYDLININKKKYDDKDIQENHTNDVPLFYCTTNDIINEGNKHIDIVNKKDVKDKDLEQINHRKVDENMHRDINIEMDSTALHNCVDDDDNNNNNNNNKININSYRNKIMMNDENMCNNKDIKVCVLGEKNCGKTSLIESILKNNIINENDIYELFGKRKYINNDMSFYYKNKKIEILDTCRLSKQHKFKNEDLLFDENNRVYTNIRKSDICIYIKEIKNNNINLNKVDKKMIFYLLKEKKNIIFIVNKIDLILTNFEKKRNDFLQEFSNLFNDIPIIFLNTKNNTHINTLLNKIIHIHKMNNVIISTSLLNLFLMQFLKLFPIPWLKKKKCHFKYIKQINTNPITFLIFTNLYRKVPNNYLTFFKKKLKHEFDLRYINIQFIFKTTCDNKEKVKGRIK
The experiment in a line: fluorescence emission on binding, […] s time courses. The conditions noted are these: labelled compound; reversible nucleotide binding, unit printed as nmol (nM probably meant).

BODIPY® FL GTPγS: the “dissociation constant (Kd)” value turned out to be 1.77 ± 0.36 nmol.
